Experimental data published in ChEMBL document CHEMBL1143243, “Design, synthesis, evaluation, and crystallographic-based structural studies of HIV-1 protease inhibitors with reduced response to the V82A mutation” (J Med Chem, 2008).

How the values were obtained:
[1] = biological target: Human immunodeficiency virus type 1 protease (Human immunodeficiency virus 1, UniProt Q72874, V82A); assay: Binding affinity to HIV1 protease V82A mutant
Protease = Protease (Human immunodeficiency virus 1, UniProt Q9YQ12); assay: Binding affinity to HIV1 protease
Protease, sequence (Q9YQ12 whole entry): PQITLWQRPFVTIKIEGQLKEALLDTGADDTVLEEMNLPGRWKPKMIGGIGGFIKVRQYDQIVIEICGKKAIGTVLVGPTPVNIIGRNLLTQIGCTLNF

[2] = tested on: Human immunodeficiency virus 1; assay: Ratio of Ki for HIV1 protease V82A mutant to Ki for wild type HIV1 protease

Row | SMILES | Ki [1] [nM] | Ki (Protease) [nM] | Ratio Ki [2]
1 | CC(C)[C@H](NC(=O)N(C)Cc1ccccn1)C(=O)N[C@@H](CC1CCCCC1)[C@H](O)[C@@H](O)[C@H](CC1CCCCC1)NC(=O)[C@@H](NC(=O)N(C)Cc1ccccn1)C(C)C | 12 | 6 | 2
2 | CC(C)[C@H](NC(=O)N(C)Cc1ccccn1)C(=O)N[C@@H](Cc1ccccc1)[C@H](O)[C@@H](O)[C@H](Cc1ccccc1)NC(=O)[C@@H](NC(=O)N(C)Cc1ccccn1)C(C)C [A-76928] | 9 | 1.3 | 7
3 | CC(C)[C@H](NC(=O)N(C)Cc1ccccn1)C(=O)N[C@@H](Cc1ccccc1)[C@H](O)[C@@H](O)[C@H](CC1CCCCC1)NC(=O)[C@@H](NC(=O)N(C)Cc1ccccn1)C(C)C |  | 3.2 | 4
